Test results taken from PubChem BioAssay (NCI).
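How tested: cells in 96-well plates exposed to compound for 48 hours at five concentrations. GI50 marks 50% less growth. TGI is the concentration that stops growth completely.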

What was measured:
Experiment in all cases: growth of human tumour cells (NCI), 48 h
COLO 205 colon = tested on: COLO 205 colon
TK-10 renal = tested on: TK-10 renal
NCI-H226 lung = tested on: NCI-H226 lung
M14 melanoma = tested on: M14 melanoma
KM12 colon = tested on: KM12 colon
PC-3 prostate = tested on: PC-3 prostate
MALME-3M melanoma = tested on: MALME-3M melanoma
A549 NSCLC = tested on: A549 NSCLC
IGROV1 ovarian = tested on: IGROV1 ovarian
SR leukemia = tested on: SR leukemia
786-0 renal = tested on: 786-0 renal
T-47D breast = tested on: T-47D breast
NCI-H522 lung = tested on: NCI-H522 lung
SF-539 CNS = tested on: SF-539 CNS
SNB-75 CNS = tested on: SNB-75 CNS
HCT-116 colon = tested on: HCT-116 colon
RXF 393 renal = tested on: RXF 393 renal
BT-549 breast = tested on: BT-549 breast
SK-OV-3 ovarian = tested on: SK-OV-3 ovarian
HT29 colon = tested on: HT29 colon
HCT-15 colon = tested on: HCT-15 colon
NCI-H460 lung = tested on: NCI-H460 lung
HOP-92 NSCLC = tested on: HOP-92 NSCLC
UACC-62 melanoma = tested on: UACC-62 melanoma
SK-MEL-2 melanoma = tested on: SK-MEL-2 melanoma
U251 CNS = tested on: U251 CNS
MDA-MB-231 breast = tested on: MDA-MB-231 breast
HCC-2998 colon = tested on: HCC-2998 colon
ACHN renal = tested on: ACHN renal
EKVX NSCLC = tested on: EKVX NSCLC
HL-60(TB) leukemia = tested on: HL-60(TB) leukemia
RPMI-8226 leukemia = tested on: RPMI-8226 leukemia
OVCAR-8 ovarian = tested on: OVCAR-8 ovarian
DU-145 prostate = tested on: DU-145 prostate
NCI/ADR-RES ovarian = tested on: NCI/ADR-RES ovarian
UO-31 renal = tested on: UO-31 renal
MOLT-4 leukemia = tested on: MOLT-4 leukemia
SF-268 CNS = tested on: SF-268 CNS
OVCAR-3 ovarian = tested on: OVCAR-3 ovarian
SK-MEL-5 melanoma = tested on: SK-MEL-5 melanoma
SF-295 CNS = tested on: SF-295 CNS
HOP-62 NSCLC = tested on: HOP-62 NSCLC
LOX IMVI melanoma = tested on: LOX IMVI melanoma
SK-MEL-28 melanoma = tested on: SK-MEL-28 melanoma
OVCAR-4 ovarian = tested on: OVCAR-4 ovarian
CCRF-CEM leukemia = tested on: CCRF-CEM leukemia
CAKI-1 renal = tested on: CAKI-1 renal
SN12C renal = tested on: SN12C renal
OVCAR-5 ovarian = tested on: OVCAR-5 ovarian
SNB-19 CNS = tested on: SNB-19 CNS
K-562 leukemia = tested on: K-562 leukemia
UACC-257 melanoma = tested on: UACC-257 melanoma
NCI-H23 lung = tested on: NCI-H23 lung
MCF7 breast = tested on: MCF7 breast
SW-620 colon = tested on: SW-620 colon
MDA-MB-435 = tested on: MDA-MB-435
HS 578T breast = tested on: HS 578T breast

## Clc1ccc2c(c1)N(c1ncnc3ccc(-c4cnc5[nH]ccc5c4)cc13)CC2
COLO 205 colon
  GI50: 3.21 µM
  TGI: > 100 µM
TK-10 renal
  GI50: 1.29 µM
  TGI: 14.5 µM
NCI-H226 lung
  GI50: 2.76 µM
  TGI: 22 µM
M14 melanoma
  GI50: 0.992 µM
  TGI: 11.9 µM
KM12 colon
  GI50: 1.24 µM
  TGI: 18.6 µM
PC-3 prostate
  GI50: 2.28 µM
  TGI: 23.6 µM
MALME-3M melanoma
  GI50: 1.08 µM
  TGI: 19.5 µM
A549 NSCLC
  GI50: 2.61 µM
  TGI: 17.7 µM
IGROV1 ovarian
  GI50: 0.304 µM
  TGI: 2.27 µM
SR leukemia
  GI50: 0.595 µM
  TGI: > 100 µM
786-0 renal
  GI50: 1.56 µM
  TGI: 14.5 µM
T-47D breast
  GI50: 0.501 µM
  TGI: 6.48 µM
NCI-H522 lung
  GI50: 0.819 µM
  TGI: 12.5 µM
SF-539 CNS
  GI50: 6.8 µM
  TGI: 48.7 µM
SNB-75 CNS
  GI50: 0.776 µM
  TGI: 21.1 µM
HCT-116 colon
  GI50: 1.36 µM
  TGI: 14.7 µM
RXF 393 renal
  GI50: 0.442 µM
  TGI: 12.2 µM
BT-549 breast
  GI50: 0.949 µM
  TGI: 47.8 µM
SK-OV-3 ovarian
  GI50: 4.03 µM
  TGI: 61.4 µM
HT29 colon
  GI50: 1.03 µM
  TGI: 2.66 µM
HCT-15 colon
  GI50: 1.06 µM
  TGI: 12.5 µM
NCI-H460 lung
  GI50: 0.952 µM
  TGI: 12.4 µM
HOP-92 NSCLC
  GI50: 2.61 µM
  TGI: 31.5 µM
UACC-62 melanoma
  GI50: 0.982 µM
  TGI: 21.1 µM
SK-MEL-2 melanoma
  GI50: 2.88 µM
  TGI: 22.8 µM
U251 CNS
  GI50: 2.51 µM
  TGI: 10.9 µM
MDA-MB-231 breast
  GI50: 2.01 µM
  TGI: 19.3 µM
HCC-2998 colon
  GI50: 11.3 µM
  TGI: 68.9 µM
ACHN renal
  GI50: 2.12 µM
  TGI: 28.2 µM
EKVX NSCLC
  GI50: 0.789 µM
  TGI: 34.4 µM
HL-60(TB) leukemia
  GI50: 1.26 µM
  TGI: > 100 µM
RPMI-8226 leukemia
  GI50: 0.766 µM
  TGI: > 100 µM
OVCAR-8 ovarian
  GI50: 3.25 µM
  TGI: 29.5 µM
DU-145 prostate
  GI50: 2.22 µM
  TGI: 19.4 µM
NCI/ADR-RES ovarian
  GI50: 1.99 µM
  TGI: 69 µM
UO-31 renal
  GI50: 0.484 µM
  TGI: 16.7 µM
MOLT-4 leukemia
  GI50: 0.954 µM
  TGI: > 100 µM
SF-268 CNS
  GI50: 3.14 µM
  TGI: 24.1 µM
OVCAR-3 ovarian
  GI50: 1.67 µM
  TGI: 20.4 µM
SK-MEL-5 melanoma
  GI50: 3.8 µM
  TGI: 26.4 µM
SF-295 CNS
  GI50: 0.88 µM
  TGI: 19.7 µM
HOP-62 NSCLC
  GI50: 2.45 µM
  TGI: 17.4 µM
LOX IMVI melanoma
  GI50: 0.734 µM
  TGI: 10.3 µM
SK-MEL-28 melanoma
  GI50: 10.2 µM
  TGI: 27.7 µM
OVCAR-4 ovarian
  GI50: 1.12 µM
  TGI: 16.9 µM
CCRF-CEM leukemia
  GI50: 1.71 µM
  TGI: > 100 µM
CAKI-1 renal
  GI50: 3 µM
  TGI: 25.7 µM
SN12C renal
  GI50: 1.95 µM
  TGI: 20 µM
OVCAR-5 ovarian
  GI50: 0.898 µM
  TGI: 22 µM
SNB-19 CNS
  GI50: 4.48 µM
  TGI: 35.5 µM
K-562 leukemia
  GI50: 0.542 µM
  TGI: > 100 µM
UACC-257 melanoma
  GI50: 14.8 µM
  TGI: 63.2 µM
NCI-H23 lung
  GI50: 3.2 µM
  TGI: 52.4 µM
MCF7 breast
  GI50: 0.54 µM
  TGI: > 100 µM
SW-620 colon
  GI50: 1.38 µM
  TGI: 14.7 µM
MDA-MB-435
  GI50: 0.295 µM
  TGI: 1.2 µM
HS 578T breast
  GI50: 0.555 µM
  TGI: 16.9 µM
